This is an account of results in US12115247B2, “Structured orodispersible films” (LTS LOHMANN THERAPIE-SYSTEME AG, priority 2017, dated 2024).

This data set in a line: Loading of porous orodispersible film with anthraquinone suspension (coating cycles). The class given is physicochemical. The text has this: For these tests an anthraquinone suspension (x50=400 nm) was used. These contained, in addition to the anthraquinone, also HPC as stabiliser in a concentration of cHPC=0.25 (in relation to the total quantity of anthraquinone in the suspension). The concentration of the suspension was varied in a range of from 0.05 to 0.2, and the suspension was applied between one and five times to the film. The suspension was applied to the film surface via an application nozzle with a volume of […] at a rate of 220 mm/min. The film used for the tests was a film with cHPC=0.28, as described in Example 1. The loading with anthraquinone was determined for each of the obtained films.

As to `O=C1c2ccccc2C(=O)c2ccccc21` [anthraquinone], the anthraquinone loading (film cHPC=0.28, anthraquinone concentration of 0.2, five coating cycles) came to 4.9 mg/cm^2. This compound showed a highest loading (film cHPC=0.28, anthraquinone concentration of 0.2, five coating cycles, suspension also contains HPC stabiliser) of 6.1 mg/cm^2. Moreover, the “maximum active ingredient loading” value (per standard orodispersible film of 6 cm^2) is listed as “approximately 30 mg”.
